Assay results published in patent US12545653B2, “Compound as PPAR agonist and application thereof” (USA Elixiria Biotech Inc., priority 2019, dated 2026).

Tests used:
db−/db− mice = assay: Diabetic peripheral neuropathy model, Von Frey threshold, sciatic nerve ROS and MDA; type: in vivo, mouse; settings: in food 10 mg/kg body weight/day (pregabalin 30 mg/kg body weight/day)
Protocol: Male 5-6 week-old male db^−/db^− mice were used in the experiment, and their normoglycemic heterozygous littermates were used as controls. db^−/db^− is a commonly used type 2 diabetes animal model. The compounds was dissolved in DMSO and mixed into food pellets. The animals were given ad libitum access to the pellets, beginning from 8 to 9 weeks of age for 10 weeks. […] The method for detecting mice hindlimb hypersensitivity is performed using Von Frey filaments. […] The difference is significant with P<0.05. The increase of mitochondrial reactive oxygen species (ROS) in the sciatic nerve of mice, which in turn leads to the increase of intracellular malondialdehyde (MDA), is the etiology of this type of neuropathic pain. The efficacy of compound to treat the root cause of the disease was evaluated by measurement of the levels of MDA and mitochondrial ROS from the sciatic nerves.

[1] = test system: MPTP-HCl Parkinson's disease model mice; assay: Parkinson's disease model (MPTP-HCl), beam traversal test; settings: MPTP-HCl/probenecid mice, 5 mg/kg body weight intraperitoneal daily, 35 days
Protocol: Three month-old male wild type mice were used in the experiment. The treatment lasted for a total of 35 days. […] For all abovementioned groups, Motor skills were assessed on the 36th to 40th days after compound administration. Beam traversal test is a method commonly used in academia to detect movement coordination in animals with Parkinson's disease. […] The mice were first trained for 2 consecutive days, and taught to trained to traverse the length of the beam. On the day of the test, a mesh grid (1 cm squares) of corresponding width was placed over the beam surface leaving a ˜1 cm space between the grid and the beam surface. Animals were then videotaped while traversing the grid-surfaced beam for a total of five trials. An error was counted when, during a forward movement, a forelimb or hindlimb slipped through the grid. The number of errors made per step (referred to as “error per step scores”) was counted. An analysis of variance (ANOVA) and Dunnett post hoc comparison test are used to compare the significance of the differences between different groups of data. The difference is significant with P<0.05.

HEK 293T cells = assay: Inhibition of reactive oxygen species production (ROS-Glo H2O2 Assay); type: cell-based, human; settings: 18 hours incubation; for EC50: Homo sapiens, HEK-293T, 18 h; for inhibition of active oxygen production (up to), compared to the DMSO control: 0-30 micromole/L
Protocol: Mitochondrial reactive oxygen species-induced oxidative stress is the source of many diseases. This experiment is used to test whether the carbonyl-containing cyclic compounds provided by the present invention can reduce the production of reactive oxygen species. HEK 293T cells were divided into 96-well plates at 5000 cells per well, cultured in a 37° C. carbon dioxide incubator with serum-free Duchenne's Modified Eagle's Medium (DMEM) for 6 hours, and then representatives for compounds listed in Table 2 and 3 were added to a final concentration of 0, 0.1, 0.3, 1, 3, 10, 30 micromole/L, with each concentration in triplicate. After 18 hours of incubation, the reactive oxygen species detection kit (ROS-Glo™ H2O2 Assay) and the GloMax microplate fluorescence detector (Promega, USA) were used to detect reactive oxygen species production. At the same time, pioglitazone was used as a control. The amount of fluorescence is positively related to the production of reactive oxygen species. A three-parameter Sigmoid function curve was used to fit the obtained data. The abscissa represents the logarithmic value of the concentration, and the ordinate represents the percentage of reduced reactive oxygen species production relative to those of the control. Then EC50 value was calculated with professional software.

APP/PS1 transgenic mice = assay: Alzheimer's disease model, eight-arm radial water maze and brain gene expression; type: in vivo, mouse; settings: 30 days in food, 10 mg/kg body weight/day (donepezil 3 mg/kg body weight/day), 5 on the first day
Source text: A common indicator used in academia in memory and dementia experiments is the number of errors in the water maze (reference memory). More errors mean poorer memory. On the last 3 days of dosing, eight-arm radial water maze was used by experimenters who were blind to drug treatment. As a classic experimental instrument, to detect slight deficits in learning and memory, the eight-arm water maze is more sensitive than not only Morris maze, but also Six-arm radial water maze. For details, see reference 8: Alamed J et al. Two-day radial-arm water maze learning and memory task; robust resolution of amyloid-related memory deficits in transgenic mice [J]. […] This experiment uses an eight-arm water maze built in accordance with the above literature. The eight-arm water maze is placed in a basin with an interior diameter of 102 cm. Each arm measures 30 cm long, 14.5 cm wide, and 40 cm high. Escape platform is located at the end of one of the arms. In the reference memory version of the task described here, the goal arm is held constant for all trials, with a different start arm on successive trials. On day one, mice received 12 trials, with trials alternating between visible and hidden platform. On day 2 and 3, mice received 12 additional trials but the platform was kept hidden throughout the trials. Entry into an incorrect arm was scored as a spatial reference error. Errors were averaged into three trial blocks, with four blocks per day, e.g., the first block (the 1st to 3rd trial), the second block (the 4th to 6th trial), and so on. […]. The line charts were made with the number of blocks as the abscissa and the average of the number of errors as the ordinate. At the end of the experiments, the cerebral cortex and hippocampus of the mice were removed, RNA was extracted, and the expression of many genes was analyzed by semi-quantitative RT-PCR. […] The difference is significant with P<0.05.

klotho gene promoter = assay: In vitro transcriptional activity of klotho gene (KL-Luc-3 luciferase cell line); type: cell-based; settings: 16 h, KL-Luc-3 cells, 16 hours incubation
Source text: The activities of these carbonyl-containing cyclic compounds are indicated by the increased expression of klotho gene. […] The present invention retains the DNA fragment of the klotho gene promoter, but replaces the DNA sequence of the coding region of the klotho gene with those of luciferase, so that the degree of activation of the klotho gene promoter and the expression of the klotho gene will be sensitively determined by detecting the luciferase luminescence signal.
Klotho is an important downstream gene of PPARγ pathway. The following experiments tested the properties of the compounds in Table 2 and 3 to activate the klotho gene in vitro. First, a stable cell line, KL-Luc, was constructed. The klotho gene carried by the cell line retained the DNA sequence of klotho gene promoter, but the coding sequence of the klotho gene was replaced with luciferase. KL-Luc fragment includes a promoter sequence of the klotho gene (a DNA region of 18,000 base pairs in length upstream of the transcription start site of the gene) and a luciferase-encoding sequence. To construct the KL-Luc sequence containing lentiviral vector, the KL-Luc fragment was cloned into the pDONR vector using BP recombinase, so that the target fragment had attL recombination sites on both sides. Then the KL-Luc fragment was transferred from the pDONR vector to a lentiviral vector (without exogenous promoter) pLenti6/BLOCK-IT-DEST. The constructed lentiviral vector of the target fragment was then transfected into HEK293T cells, and then the KL-Luc gene lentiviral expression vector and the […] were co-transfected into HEK293T cells to perform lentiviral packaging. The virus was harvested, and virus titer was calculated. And the lentivirus was used to infect target cells. The stable strains were screened by adding drugs. Finally, monoclonal cell lines were selected from polyclonal cells by cell cloning. The effective luciferase expression of each monoclonal cell line was determined by quantitative polymerase chain reaction (qPCR). The inventors chose a third monoclonal cell line (KL-Luc-3) to continue the compound screening. The compounds of interest were the compounds in Table 2 and 3. At the same time, rosiglitazone and pioglitazone were used as a control. KL-Luc-3 cells were divided into 96-well plates at 5000 cells in 80 microL per well, cultured in a 37° C. carbon dioxide incubator with serum-free Duchenne's Modified Eagle's Medium (DMEM) for 6 hours, and then the compounds were added to a final concentration of 0, 0.1, 0.3, 1, 3, 10, 30 micromole/L, with each concentration in triplicate. After 16 hours of incubation, the SteadyLite (PerkinElmer, Waltham, MA) and the GloMax Microplate Luminometer (Promega, USA) were used for quantitation of luciferase activity. The amount of luminescence emitted from each well is positively related to the transcriptional activity of the klotho promoter. A three-parameter Sigmoid function curve was used to fit the obtained data. The abscissa represents the logarithmic value of the concentration, and the ordinate represents the percentage of the activity relative to those of the control. […] In Statistical analysis, the coefficient of variation is used to measure the robustness and repeatability of the experiment. […] The difference is significant with P<0.05. EC50 is a parameter of its activity. The lower the EC50 value, the higher the activity of corresponding compound.

PPARγ = biological target: T1, PPARγ (Homo sapiens, UniProt P37231); assay: In vitro transcriptional activity of PPARγ gene (PPRE-luciferase reporter, HEK 293 T cells); type: cell-based; settings: HEK 293 T cells transfected with PPARγ expression and PPRE-luc plasmids, 21 hours; read-out: EC50 of PPARγ gene activation
T1 construct: expressed in transfected cells; host or cells: HEK 293 T cells
T1 sequence (P37231 1-505): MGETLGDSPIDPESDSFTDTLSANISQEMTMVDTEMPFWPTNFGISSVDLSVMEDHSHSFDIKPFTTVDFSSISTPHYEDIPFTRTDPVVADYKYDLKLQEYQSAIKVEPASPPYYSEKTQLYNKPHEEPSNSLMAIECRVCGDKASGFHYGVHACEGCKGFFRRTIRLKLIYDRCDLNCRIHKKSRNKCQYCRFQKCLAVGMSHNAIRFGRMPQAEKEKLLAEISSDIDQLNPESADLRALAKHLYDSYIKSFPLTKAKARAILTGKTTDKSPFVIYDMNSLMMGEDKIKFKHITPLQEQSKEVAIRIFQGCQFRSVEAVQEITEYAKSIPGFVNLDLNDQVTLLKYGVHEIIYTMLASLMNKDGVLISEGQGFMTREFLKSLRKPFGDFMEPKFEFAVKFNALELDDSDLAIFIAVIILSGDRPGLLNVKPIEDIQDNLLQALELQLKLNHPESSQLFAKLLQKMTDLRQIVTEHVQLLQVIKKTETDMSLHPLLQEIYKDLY
Source text: In this experiment, the PPARγ gene was used as target gene to detect the in vitro transcription activity of the compounds. The compounds of interest were detected was first dissolved with dimethyl sulfoxide (DMSO). […] First two plasmids were constructed: PPARγ protein expression plasmid and luciferase reporter plasmid. They are both from the lentiviral plasmid pLV-CMVIE-ZsGreen-Puro, whose DNA sequence contains the cytomegalovirus immediate early (CMVie) promoter, ZsGreen and Puro dual reporter. The PPARγ expression plasmid pLV-CMVIE-PPAR[…]-ZsGreen-Puro was constructed by cloning full-length coding sequences of the pertinent receptors into pHBLV-CMVIE-ZsGreen-Puro vector. To construct the luciferase (luc) reporter plasmid pLV-PPRE-luc-ZsGreen-Puro, the CMVie promoter in plasmid pHBLV-CMVIE-ZsGreenPuro was first replaced by a peroxisome proliferator responsive element (PPRE) containing fragments comprised the nucleotide sequence 50-[…], repeated four times in tandem, to generate a new plasmid, at a multiple cloning site of which the luc gene was then inserted. […] The compounds used for screening are representatives for compounds listed in Table 2, and Tables 3 of the present invention. […] Cells were distributed in 10-cm tissue culture plates at a density of 5.5 million cells per plate, and then transfected with the luciferase reporter plasmid (6 nanogram/plate) and the PPARγ expression plasmid (18 nanogram/plate). Cells were cultured for 6 hours. […] Then the cells were distributed in 96-well plates at a density of 20,000 cells per well. After incubation for 6 h, compounds or control with different concentration were placed into each well, resulting in the finical concentration of […] with each concentration in triplicate. Twenty-one hours later, promoter activation was detected by the addition of SteadyLite (PerkinElmer, Waltham, MA) and GloMax 96 Microplate Luminometer (Promega, Madison, WI). The amount of Luminometer emitted from each well is positively correlated with the expression of PPARγ gene. A three-parameter Sigmoid function curve was used to fit the obtained data. The abscissa represents the logarithmic value of the concentration, and the ordinate represents the percentage of PPARγ gene activation relative to those of the control. […] In Statistical analysis, the coefficient of variation is used to measure the robustness and repeatability of the experiment. […] The difference is significant with P<0.05. EC50 is a parameter of its activity.

[2] = Blood-brain barrier permeability: brain concentration after a single injection; type: in vivo, rat; settings: for AUC(0-t): male, rat, in vivo, ip, 10 mg/kg
Protocol: The blood-brain barrier permeability of carbonyl-containing cyclic compounds is determined in in vivo studies. Healthy male rats used in the study were divided into compound group and control group. […] The brains were dissected, heated immediately at boiling water for 2 min, homogenized with methanol, and centrifuged. The upper layer was collected and dried under vacuum to remove solvents, and then resuspended in methanol. The above samples are filtered through a 0.45 micron nylon membrane, and then 20 microL of sample were load into a high-performance liquid chromatographic (HPLC) system (Model LC-16P, Shimadzu, Japan) to perform quantitative analysis.

[3] = test system: dIoN-CCI rat model of trigeminal neuropathic pain; assay: Trigeminal neuralgia model (dIoN-CCI), Von Frey mechanical threshold; settings: dIoN-CCI rats
Source text: A common rat model of trigeminal neuralgia is a chronic compression injury model (CCI) caused by ligation of the infraorbital nerve (IoN). In the present study, an improved rat model of trigeminal neuropathic pain was used, in which CCI is induced by ligation of distal segment of IoN (dIoN). Wild type male Sprague-Dawley rats with body weight 250 to 260 grams underwent dIoN-CCI surgery experiments. The mechanical threshold of pain in rats without surgery experiments will exceed 6 grams. If the dIoN-CCI surgery is successful, it will reduce the pain threshold to less than 2 grams.
The mice were divided into the following 11 groups with 4 to 5 mice in each group. The formulation used for transdermal treatment is cream. […] The compound administration of each group starts on the third day after successful dIoN-CCI surgery. […] The method for detecting rat facial hypersensitivity is performed using Von Frey filaments. An analysis of variance (ANOVA) and Dunnett post hoc comparison test are used to compare the significance of the differences between different groups of data. The difference is significant with P<0.05.

[4] = compared with healthy control group

Row | SMILES | level of MDA in the sciatic nerve after 10 week treatment (db−/db− mice; [4]) | level of mitochondrial ROS in the sciatic nerve after 10 week treatment (db−/db− mice; [4]) | mechanical pain threshold after 10 week treatment (db−/db− mice; compared with normal control group) | number of errors per step in beam traversal test compared with disease control group [1] | EC50 (HEK 293T cells) [µM] | number of errors in water maze on the third day (APP/PS1 transgenic mice) | EC50 (klotho gene promoter) [µM] | EC50 (PPARγ) [µM] | AUC(0-t) ([2]; AUC0-6 h) [ng·h/mL] | AUC(0-t) ([2]; AUC0-24 h) [ng·h/mL] | time to maximum brain concentration (Tmax) ([2]; rat brain, 10 mg/kg intraperitoneal, single injection) [h] | inhibition of active oxygen production (up to), compared to the DMSO control (HEK 293T cells) | minimum effective anti-allodynic dose ([3]; oral) [mg/kg] | mechanical threshold 2 hours after oral administration ([3]; oral 300 mg/kg body weight, Von Frey) [g]
1 | CCc1ccc(CCCCc2ccc3c(c2)C(=O)CC3)cc1 [ELB00825, 6-(4-(4-ethylphenyl)butyl)-2,3-dihydro-1H-inden-1-one] | reduced | reduced | significantly improved | significantly lower | < 10 | comparable to that of ELB00824 |  |  |  |  |  |  |  | 
2 | CCc1cccc(CC/C=C/c2ccc3c(c2)C(=O)CC3)c1 [ELB001203, 6-((1E)-4-(3-ethylphenyl)but-1-en-1-yl)-2,3-dihydro-1H-inden-1-one] |  |  |  |  | < 3 |  | < 9.7 | < 6.4 |  |  |  |  |  | 
3 | CCc1ccc(CCOc2ccc(CC3SC(=O)NC3=O)cc2)nc1 (stereo not drawn) [pioglitazone, reference compound] |  |  |  |  | 0.7 |  |  |  | 1510 | 3520 | 1 | up to 42% | 300 | 4.9 ± 0.9
4 | CN(CCOc1ccc(CC2SC(=O)NC2=O)cc1)c1ccccn1 (stereo not drawn) [rosiglitazone, reference compound] |  |  |  |  | 2.5 |  | 9.7 |  | 774 | 1930 |  | up to 58% |  | 
